Measured values reported in patent US8580825B2, “Oxadiazole inhibitors of leukotriene production” (Boehringer Ingelheim International GmbH, priority 2010, dated 2013).

Key:
[1] = target: T1, recombinant human FLAP protein (Homo sapiens, UniProt P20292); assay: FLAP binding assay (Scintillation Proximity Assay, displacement of [125I]L-691,831); settings: for IC50: read-out: FLAP SPA IC50
T1 construct: made in house; host or cells: Sf9 insect cells (100,000xg membrane fraction used)
T1 sequence (P20292 1-161): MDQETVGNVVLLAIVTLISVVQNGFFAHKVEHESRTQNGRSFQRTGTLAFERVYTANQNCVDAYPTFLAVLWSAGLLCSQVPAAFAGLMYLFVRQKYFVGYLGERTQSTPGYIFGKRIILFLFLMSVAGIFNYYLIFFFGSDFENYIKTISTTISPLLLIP
Procedure, shortened: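 Scintillation proximity displacement of [125I]L-691,831 (0.08 nM) from membranes of sf9 cells expressing recombinant human FLAP (5 μg/well) on WGA SPA beads, pH 7.5 Tris buffer. Plates shaken 2 h before counting. Non-specific binding defined with 10 μM unlabelled L-691,831.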

[2] = test system: synthesis of LTB4 in human whole blood; assay: human whole blood LTB4 production inhibition assay; type: cell-based; settings: calcimycin stimulated, read-out: hWB LTB4 IC50
Procedure, shortened: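 Heparinized human whole blood preincubated with compound 15 min at 37 °C, then stimulated with calcimycin (20 μM final) for 30 min at 37 °C. Plasma LTB4 measured after low-speed centrifugation by antibody-based homogeneous time-resolved fluorescence.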

Structure (SMILES)	IC50 [1] [nM]	IC50 [2] [nM]	inhibition at 1 µM ([1]; read-out: FLAP SPA inhibition at 1 uM) [%]
CC(C)[C@](C)(c1ccc(-c2cnc(N)cn2)nc1)c1noc(-c2cnn(C)c2)n1 [Example 77, 5-(5-{(2R)-3-methyl-2-[5-(1-methyl-1H-pyrazol-4-yl)-1,2,4-oxadiazol-3-yl]butan-2-yl}pyridin-2-yl)pyrazin-2-amine]	0.14	15	–
C[C@@](c1ccc(-c2cnc(N)nc2)nc1)(c1noc(-c2cnn(C3COC3)c2)n1)C1CC1 [Example 78, 5-{5-[(1R)-1-cyclopropyl-1-{5-[1-(oxetan-3-yl)-1H-pyrazol-4-yl]-1,2,4-oxadiazol-3-yl}ethyl]pyridin-2-yl}pyrimidin-2-amine]	8	29	–
C[C@](c1ccc(-c2cnc(N)nc2)nc1)(c1noc(-c2cnn(C3COC3)c2)n1)C1CC1 [Example 79, 5-{5-[(1S)-1-cyclopropyl-1-{5-[1-(oxetan-3-yl)-1H-pyrazol-4-yl]-1,2,4-oxadiazol-3-yl}ethyl]pyridin-2-yl}pyrimidin-2-amine]	140	650	–
CNC(=O)Cn1cc(-c2nc(C(C)(c3ccc(-c4cnc(N)nc4)nc3)C(C)C)no2)cn1 (stereo not shown) [Example 80, 2-[4-(3-{2-[6-(2-aminopyrimidin-5-yl)pyridin-3-yl]-3-methylbutan-2-yl}-1,2,4-oxadiazol-5-yl)-1H-pyrazol-1-yl]-N-methylacetamide]	5.6	230	–
CN(C)C(=O)Cn1cc(-c2nc([C@@](C)(c3ccc(-c4cnc(N)nc4)nc3)C3CC3)no2)cn1 [Example 83, 2-[4-(3-{(1R)-1-[6-(2-aminopyrimidin-5-yl)pyridin-3-yl]-1-cyclopropylethyl}-1,2,4-oxadiazol-5-yl)-1H-pyrazol-1-yl]-N,N-dimethylacetamide]	76	200	–
CN(C)C(=O)Cn1cc(-c2nc([C@](C)(c3ccc(-c4cnc(N)nc4)nc3)C3CC3)no2)cn1 [Example 84, 2-[4-(3-{(1S)-1-[6-(2-aminopyrimidin-5-yl)pyridin-3-yl]-1-cyclopropylethyl}-1,2,4-oxadiazol-5-yl)-1H-pyrazol-1-yl]-N,N-dimethylacetamide]	–	2900	45
CC(C)C(C)(c1ccc(-c2cnc(N)nc2)nc1)c1noc(-c2cn(CC(C)(C)O)cn2)n1 (stereo not shown) [Example 85, 1-[4-(3-{2-[6-(2-aminopyrimidin-5-yl)pyridin-3-yl]-3-methylbutan-2-yl}-1,2,4-oxadiazol-5-yl)-1H-imidazol-1-yl]-2-methylpropan-2-ol]	350	1900	–
Cn1cc(-c2nc(C(C)(C)c3ccc(-c4cnc(N)nc4)nc3)no2)cn1 [Example 86, 5-(5-{2-[5-(1-methyl-1H-pyrazol-4-yl)-1,2,4-oxadiazol-3-yl]propan-2-yl}pyridin-2-yl)pyrimidin-2-amine]	140	790	–
CC(C)(c1ccc(-c2cnc(N)nc2)nc1)c1noc(-c2cn[nH]c2)n1 [Example 87, 5-(5-{2-[5-(1H-pyrazol-4-yl)-1,2,4-oxadiazol-3-yl]propan-2-yl}pyridin-2-yl)pyrimidin-2-amine]	670	> 5000	–
CC(C)(O)Cn1cc(-c2nc(C(C)(C)c3ccc(-c4cnc(N)nc4)nc3)no2)cn1 [Example 88, 1-[4-(3-{2-[6-(2-aminopyrimidin-5-yl)pyridin-3-yl]propan-2-yl}-1,2,4-oxadiazol-5-yl)-1H-pyrazol-1-yl]-2-methylpropan-2-ol]	370	1500	–
COCCn1cc(-c2nc(C(C)(C)c3ccc(-c4cnc(N)nc4)nc3)no2)cn1 [Example 89, 5-[5-(2-{5-[1-(2-methoxyethyl)-1H-pyrazol-4-yl]-1,2,4-oxadiazol-3-yl}propan-2-yl)pyridin-2-yl]pyrimidin-2-amine]	230	880	–
COC(=O)C(C)(C)n1cc(-c2nc(C(C)(C)c3ccc(-c4cnc(N)nc4)nc3)no2)cn1 [Example 90, methyl 2-[4-(3-{2-[6-(2-aminopyrimidin-5-yl)pyridin-3-yl]propan-2-yl}-1,2,4-oxadiazol-5-yl)-1H-pyrazol-1-yl]-2-methylpropanoate]	140	950	–
COCCOCCn1cc(-c2nc(C(C)(C)c3ccc(-c4cnc(N)nc4)nc3)no2)cn1 [Example 91, 5-{5-[2-(5-{1-[2-(2-methoxyethoxy)ethyl]-1H-pyrazol-4-yl}-1,2,4-oxadiazol-3-yl)propan-2-yl]pyridin-2-yl}pyrimidin-2-amine]	300	1500	–
CC(C)Nc1cnc(-c2nc([C@@](C)(c3ccc(-c4cnc(N)nc4)nc3)C(C)C)no2)cn1 [Example 92, 5-[5-{(R)-1-[5-(5-Isopropylamino-pyrazin-2-yl)-[1,2,4]oxadiazol-3-yl]-1,2-dimethyl-propyl}-pridin-2-yl)-pyrimidin-2-ylamine]	15	92	–
CC(C)Nc1cnc(-c2nc([C@](C)(c3ccc(-c4cnc(N)nc4)nc3)C(C)C)no2)cn1 [Example 93, 5-(5-{(S)-1-[5-(5-Isopropylamino-pyrazin-2-yl)-[1,2,4]oxadiazol-3-yl]-1,2-dimethyl-propyl}-pyridin-2-yl)-pyrimidin-2-ylamine]	21	28	–
CC(C)[C@](C)(c1ccc(-c2cnc(N)nc2)nc1)c1noc(-c2cnc(NC(C)(C)CO)cn2)n1 [Example 94, 2-[5-(3-{(R)-1-[6-(2-Amino-pyrimidin-5-yl)-pyridin-3-yl]-1,2-dimethyl-propyl}-[1,2,4]oxadiazol-5-yl)-pyrazin-2-ylamino]-2-methyl-propan-1-ol]	26	74	–
CC(C)[C@@](C)(c1ccc(-c2cnc(N)nc2)nc1)c1noc(-c2cnc(NC(C)(C)CO)cn2)n1 [Example 95, 2-[5-(3-{(S)-1-[6-(2-Amino-pyrimidin-5-yl)-pyridin-3-yl]-1,2-dimethyl-propyl}-[1,2,4]oxadiazol-5-yl)-pyrazin-2-ylamino]-2-methyl-propan-1-ol]	92	210	–
CC(C)[C@](C)(c1ccc(-c2cnc(N)nc2)nc1)c1noc(-c2cnn(C3CCS(=O)(=O)C3)c2)n1 (stereo partly drawn) [Example 96, 5-[5-((R)-1-{5-[1-(1,1-Dioxo-tetrahydro-116-thiophen-3-yl)-1H-pyrazol-4-yl]-[1,2,4]oxadiazol-3-yl}-1,2-dimethyl-propyl)-pyridin-2-yl]-pyrimidin-2-ylamine]	9.9	240	–
CC(C)[C@](C)(c1ccc(-c2cnc(N)nc2)nc1)c1noc(-c2cnn(CCN(C)C)c2)n1 [Example 97, 5-[5-((R)-1-{5-[1-(2-Dimethylamino-ethyl)-1H-pyrazol-4-yl]-[1,2,4]oxadiazol-3-yl}-1,2-dimethyl-propyl)-pyridin-2-yl]-pyrimidin-2-ylamine]	7.9	30	–
CC(c1ccc(-c2ccc(N)nc2)nc1)(c1noc(-c2cn[nH]c2)n1)C1CC1 (stereo not shown) [Example 98, 5-{1-Cyclopropyl-1-[5-(1H-pyrazol-4-yl)-[1,2,4]oxadiazol-3-yl]-ethyl}-[2,3′]bipyridinyl-6′-ylamine]	26	500	–
CN(C)CCn1cc(-c2nc([C@@](C)(c3ccc(-c4cnc(N)nc4)nc3)C3CC3)no2)cn1 [Example 99, 5-[5-((R)-1-Cyclopropyl-1-{5-[1-(2-dimethylamino-ethyl)-1H-pyrazol-4-yl]-[1,2,4]oxadiazol-3-yl}-ethyl)-pyridin-2-yl]-pyrimidin-2-ylamine]	32	150	–
CC(C)(O)Cn1cc(-c2nc([C@@](C)(c3ccc(-c4cnc(N)cn4)nc3)C3CC3)no2)cn1 [Example 100, 1-[4-(3-{(R)-1-[6-(5-Amino-pyrazin-2-yl)-pyridin-3-yl]-1-cyclopropyl-ethyl}-[1,2,4]oxadiazol-5-yl)-pyrazol-1-yl]-2-methyl-propan-2-ol]	53	210	–
CC(C)(O)Cn1cc(-c2nc([C@](C)(c3ccc(-c4cnc(N)cn4)nc3)C3CC3)no2)cn1 [Example 101, 1-[4-(3-{(S)-1-[6-(5-Amino-pyrazin-2-yl)-pyridin-3-yl]-1-cyclopropyl-ethyl}-[1,2,4]oxadiazol-5-yl)-pyrazol-1-yl]-2-methyl-propan-2-ol]	280	990	–
CC(C)(C)NC(=O)Cn1cc(-c2nc([C@@](C)(c3ccc(-c4cnc(N)nc4)nc3)C3CC3)no2)cn1 [Example 102, 2-[4-(3-{(R)-1-[6-(2-Amino-pyrimidin-5-yl)-pyridin-3-yl]-1-cyclopropyl-ethyl}-[1,2,4]oxadiazol-5-yl)-pyrazol-1-yl]-N-tert-butyl-acetamide]	13	89	–
COCCn1cc(-c2nc([C@@](C)(c3ccc(-c4cnc(N)cn4)nc3)C(C)C)no2)cn1 [Example 104, 5-[5-((R)-1-{5-[1-(2-Methoxy-ethyl)-1H-pyrazol-4-yl]-[1,2,4]oxadiazol-3-yl}-1,2-dimethyl-propyl)-pyridin-2-yl]-pyrazin-2-ylamine]	5.7	17	–
CC(C)[C@](C)(c1ccc(-c2cnc(N)cn2)nc1)c1noc(-c2cnc(N3CCNCC3)cn2)n1 [Example 105, 5-(5-{(R)-1,2-Dimethyl-1-[5-(3,4,5,6-tetrahydro-2H-[1,2′]bipyrazinyl-5′-yl)-[1,2,4]oxadiazol-3-yl]-propyl}-pyridin-2-yl)-pyrazin-2-ylamine]	7.8	450	–
